From PubChem BioAssay (NCI)
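Where inhibition never reached the appropriate level, the endpoint shown equals the highest concentration tested. Otherwise, values were interpolated linearly from a five-concentration, 48-hour dose response in 96-well plates. At the GI50, growth is halved. TGI denotes the concentration required for complete inhibition of growth.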

Key:
Assay in all cases: DTP human tumour cell line panel, 48 h
[1] = tested on: A498 renal
[2] = tested on: HCT-116 colon
[3] = tested on: IGROV1 ovarian
[4] = tested on: M14 melanoma
[5] = tested on: NCI-H460 lung
[6] = tested on: SK-MEL-2 melanoma
[7] = tested on: SK-MEL-5 melanoma
[8] = tested on: SW-620 colon
[9] = tested on: UACC-62 melanoma
[10] = tested on: 786-0 renal
[11] = tested on: A549 NSCLC
[12] = tested on: ACHN renal
[13] = tested on: BT-549 breast
[14] = tested on: CAKI-1 renal
[15] = tested on: CCRF-CEM leukemia
[16] = tested on: COLO 205 colon
[17] = tested on: DU-145 prostate
[18] = tested on: EKVX NSCLC
[19] = tested on: HCC-2998 colon
[20] = tested on: HCT-15 colon
[21] = tested on: HL-60(TB) leukemia
[22] = tested on: HOP-62 NSCLC
[23] = tested on: HOP-92 NSCLC
[24] = tested on: HS 578T breast
[25] = tested on: HT29 colon
[26] = tested on: K-562 leukemia
[27] = tested on: KM12 colon
[28] = tested on: LOX IMVI melanoma
[29] = tested on: MCF7 breast
[30] = tested on: MDA-MB-231 breast
[31] = tested on: MOLT-4 leukemia
[32] = tested on: NCI-H226 lung
[33] = tested on: NCI-H23 lung
[34] = tested on: NCI-H522 lung
[35] = tested on: NCI/ADR-RES ovarian
[36] = tested on: OVCAR-3 ovarian
[37] = tested on: OVCAR-4 ovarian
[38] = tested on: OVCAR-5 ovarian
[39] = tested on: PC-3 prostate
[40] = tested on: RPMI-8226 leukemia
[41] = tested on: RXF 393 renal
[42] = tested on: SF-268 CNS
[43] = tested on: SF-295 CNS
[44] = tested on: SF-539 CNS
[45] = tested on: SK-MEL-28 melanoma
[46] = tested on: SK-OV-3 ovarian
[47] = tested on: SN12C renal
[48] = tested on: SNB-19 CNS
[49] = tested on: SR leukemia
[50] = tested on: TK-10 renal
[51] = tested on: U251 CNS
[52] = tested on: UACC-257 melanoma
[53] = tested on: UO-31 renal
[54] = tested on: MDA-MB-435
[55] = tested on: OVCAR-8 ovarian
[56] = tested on: SNB-75 CNS
[57] = tested on: T-47D breast

With `C[C@H]1[C@H](C)CC[C@]2(C(=O)Nc3ccc4ncccc4c3)CC[C@]3(C)C(=CC[C@@H]4[C@@]5(C)CCCNC(C)(C)[C@@H]5CC[C@]43C)[C@H]12` the GI50 [1] was 1.56 µM, the TGI [1] was 2.96 µM and the GI50 [2] was 1.6 µM. The TGI [2] was 3.11 µM, the GI50 [3] was 1.7 µM and the TGI [3] was 3.37 µM. It also gave a GI50 [4] of 1.94 µM, a TGI [4] of 3.59 µM and a GI50 [5] of 1.94 µM. For the same molecule, the TGI [5] was 3.82 µM, the GI50 [6] was 1.84 µM and the TGI [6] was 3.43 µM. For the same molecule, the GI50 [7] was 1.85 µM, the TGI [7] was 3.32 µM and the GI50 [8] was 1.8 µM. For the same molecule, the TGI [8] was 3.37 µM, the GI50 [9] was 1.74 µM and the TGI [9] was 3.23 µM.

Work on `NC(=O)OCCn1cc(-c2nc(-c3c[nH]c4ncccc34)cs2)c2ccccc21` yielded a GI50 [10] of 2.38 µM, a TGI [10] of 7.23 µM and a GI50 [1] of 0.905 µM. The TGI [1] was 2.87 µM, the GI50 [11] was 2.34 µM and the TGI [11] was 23 µM. The GI50 [12] was 2.05 µM, the TGI [12] was 8.24 µM and the GI50 [13] was 1.5 µM. The TGI [13] was 6.04 µM, the GI50 [14] was 2.42 µM and the TGI [14] was 8.54 µM. The GI50 [15] was 2.65 µM, the TGI [15] was 16.9 µM and the GI50 [16] was 2.06 µM. For the same molecule, the TGI [16] was 9.57 µM, the GI50 [17] was 3.07 µM and the TGI [17] was 26.1 µM. For the same molecule, the GI50 [18] was 1.3 µM, the TGI [18] was 7.68 µM and the GI50 [19] was 1.99 µM. The TGI [19] was 6.54 µM, the GI50 [2] was 1.72 µM and the TGI [2] was 5.02 µM. It also gave a GI50 [20] of 1.92 µM, a TGI [20] of over 100 µM and a GI50 [21] of 2.12 µM. The TGI [21] was 5.45 µM, the GI50 [22] was 1.07 µM and the TGI [22] was 7.87 µM. It also gave a GI50 [23] of 0.668 µM, a TGI [23] of 3.71 µM and a GI50 [24] of 1.07 µM. For the same molecule, the TGI [24] was 4.25 µM, the GI50 [25] was 1.77 µM and the TGI [25] was 8.55 µM. The GI50 [3] was 0.138 µM, the TGI [3] was 1.95 µM and the GI50 [26] was 1.55 µM. For the same molecule, the TGI [26] was 14 µM, the GI50 [27] was 1.44 µM and the TGI [27] was 9.45 µM. For the same molecule, the GI50 [28] was 1.55 µM, the TGI [28] was 4.11 µM and the GI50 [4] was 1.33 µM. The TGI [4] was 4.53 µM, the GI50 [29] was 0.989 µM and the TGI [29] was 5.31 µM. The GI50 [30] was 1.1 µM, the TGI [30] was 4.38 µM and the GI50 [31] was 2.19 µM. For the same molecule, the TGI [31] was 8.61 µM, the GI50 [32] was 1.68 µM and the TGI [32] was 12.5 µM. The GI50 [33] was 2.02 µM, the TGI [33] was over 100 µM and the GI50 [5] was 2.46 µM. The TGI [5] was 12.5 µM, the GI50 [34] was 1.49 µM and the TGI [34] was 4.42 µM. The GI50 [35] was 2.82 µM, the TGI [35] was over 100 µM and the GI50 [36] was 1.27 µM. It also gave a TGI [36] of 3.83 µM, a GI50 [37] of 1.78 µM and a TGI [37] of 11.9 µM. The GI50 [38] was 2.21 µM, the TGI [38] was 43.8 µM and the GI50 [39] was 1.87 µM. The TGI [39] was 14.6 µM, the GI50 [40] was 2.04 µM and the TGI [40] was 8.03 µM. It also gave a GI50 [41] of 1.78 µM, a TGI [41] of 5.56 µM and a GI50 [42] of 1.48 µM. For the same molecule, the TGI [42] was 6.77 µM, the GI50 [43] was 2.29 µM and the TGI [43] was 7.7 µM. The GI50 [44] was 1.61 µM, the TGI [44] was 4.5 µM and the GI50 [6] was 1.52 µM. The TGI [6] was 3.96 µM, the GI50 [45] was 2.05 µM and the TGI [45] was 14.8 µM. It also gave a GI50 [7] of 1.41 µM, a TGI [7] of 2.85 µM and a GI50 [46] of 1.54 µM. The TGI [46] was 6.44 µM, the GI50 [47] was 2.46 µM and the TGI [47] was 32.4 µM. The GI50 [48] was 2.57 µM, the TGI [48] was 43.8 µM and the GI50 [49] was 1.08 µM. It also gave a TGI [49] of 7.05 µM, a GI50 [8] of 1.3 µM and a TGI [8] of 4.53 µM. The GI50 [50] was 2.24 µM, the TGI [50] was 7.66 µM and the GI50 [51] was 1.91 µM. It also gave a TGI [51] of 5.08 µM, a GI50 [52] of 2.08 µM and a TGI [52] of 7.88 µM. For the same molecule, the GI50 [9] was 1.57 µM, the TGI [9] was 5.41 µM and the GI50 [53] was 0.621 µM. For the same molecule, the TGI [53] was 4.65 µM.

`CC1=C(C(=O)Nc2ccc(Cl)c(Cl)c2)C(c2cccc(Oc3ccccc3)c2)NC(=O)N1` (centres undefined) gave a GI50 [10] of 10.2 µM, a TGI [10] of 20.8 µM and a GI50 [11] of 3.94 µM. For the same molecule, the TGI [11] was over 50 µM, the GI50 [12] was 6.6 µM and the TGI [12] was 17.3 µM. For the same molecule, the GI50 [13] was 4.23 µM, the TGI [13] was 14.3 µM and the GI50 [14] was 7.64 µM. The TGI [14] was 20.4 µM, the GI50 [15] was over 50 µM and the TGI [15] was over 50 µM. The GI50 [16] was 12.6 µM, the TGI [16] was 35.7 µM and the GI50 [17] was 6.5 µM. The TGI [17] was 33.3 µM, the GI50 [18] was 5.21 µM and the TGI [18] was 16.3 µM. It also gave a GI50 [20] of 6.61 µM, a TGI [20] of 48.2 µM and a GI50 [21] of 22.8 µM. For the same molecule, the TGI [21] was over 50 µM, the GI50 [22] was 14.6 µM and the TGI [22] was 26.5 µM. It also gave a GI50 [23] of 24.6 µM, a TGI [23] of over 50 µM and a GI50 [24] of 6.72 µM. It also gave a TGI [24] of 22.3 µM, a GI50 [3] of 5.6 µM and a TGI [3] of 32.6 µM. For the same molecule, the GI50 [26] was 18.6 µM, the TGI [26] was over 50 µM and the GI50 [27] was 8.72 µM. It also gave a TGI [27] of 19.7 µM, a GI50 [28] of 4.33 µM and a TGI [28] of 13.8 µM. The GI50 [4] was 17.8 µM, the TGI [4] was 31.7 µM and the GI50 [30] was 6.15 µM. The TGI [30] was 16.3 µM, the GI50 [54] was 6.33 µM and the TGI [54] was 16.7 µM. It also gave a GI50 [31] of over 50 µM, a TGI [31] of over 50 µM and a GI50 [32] of 8.36 µM. It also gave a TGI [32] of 19.8 µM, a GI50 [5] of 4.94 µM and a TGI [5] of 32.8 µM. The GI50 [34] was 4.47 µM, the TGI [34] was 26 µM and the GI50 [36] was 7.75 µM. For the same molecule, the TGI [36] was 17 µM, the GI50 [37] was 11.2 µM and the TGI [37] was over 50 µM. The GI50 [38] was 13.4 µM, the TGI [38] was 33 µM and the GI50 [55] was 7.67 µM. The TGI [55] was 22 µM, the GI50 [39] was 16.3 µM and the TGI [39] was over 50 µM. For the same molecule, the GI50 [40] was 13.4 µM, the TGI [40] was over 50 µM and the GI50 [41] was 9.61 µM. The TGI [41] was 26.5 µM, the GI50 [42] was 6.65 µM and the TGI [42] was 17.7 µM. The GI50 [43] was 5.57 µM, the TGI [43] was 16.6 µM and the GI50 [44] was 6.78 µM. The TGI [44] was 17 µM, the GI50 [6] was 5.68 µM and the TGI [6] was 17.9 µM. For the same molecule, the GI50 [45] was 11.1 µM, the TGI [45] was 33.2 µM and the GI50 [7] was 8.07 µM. It also gave a TGI [7] of 17 µM, a GI50 [46] of 25.5 µM and a TGI [46] of over 50 µM. For the same molecule, the GI50 [47] was 5.28 µM, the TGI [47] was 12.5 µM and the GI50 [48] was 20.1 µM. It also gave a TGI [48] of over 50 µM, a GI50 [56] of 15.9 µM and a TGI [56] of over 50 µM. It also gave a GI50 [49] of 28.1 µM, a TGI [49] of over 50 µM and a GI50 [8] of 12.8 µM. It also gave a TGI [8] of 43.8 µM, a GI50 [57] of 22.9 µM and a TGI [57] of over 50 µM. It also gave a GI50 [50] of 20.7 µM, a TGI [50] of over 50 µM and a GI50 [51] of 5.28 µM. The TGI [51] was 14.7 µM, the GI50 [52] was 11.9 µM and the TGI [52] was 42.6 µM. It also gave a GI50 [9] of 6.27 µM, a TGI [9] of 14.1 µM and a GI50 [53] of 4.74 µM. It also gave a TGI [53] of over 50 µM.
